Results published in US12593845B2 (priority 2019, dated 2026).

Columns and labels:
[1] = test system: apple scab pathogen (Venturia inaequalis); test: Apple scab control test; assay type: in vivo; details: 336 h, 125 ppm drug solution sprayed onto apple seedlings (Orin), lesion area ratio 2 weeks after inoculation
Method: 5 parts by weight of the dihydropyrimidine compound of the present invention, 93.5 parts by weight of N,N-dimethylformamide, and 1.5 parts by weight of polyoxyethylene sorbitan monolaurate (TWEEN® 20) were mixed and dissolved to obtain an emulsion (I) including 5% of an active ingredient.
The control value was calculated by the following expression. Control value (%)=100−{lesion area ratio in treated group/lesion area ratio in untreated group}×100 [Expression 1]
Water was added to the emulsion (I) such that the concentration of the dihydropyrimidine compound reached 125 ppm to dissolve the emulsion, and a drug solution was obtained. Subsequently, the drug solution was sprayed onto apple seedlings (variety: “Orin”, leaf stage: 3 to 4) cultivated in seedling pots. After air drying, the seedlings were inoculated with conidiospores of an apple scab pathogen (Venturia inaequalis) (treated group). As a control, apple seedlings that were not sprayed with the drug solution were inoculated in the same manner (untreated group). The seedlings were left to stand in a humidified room at 20° C. using a 12 hour light/dark cycle.
On the day 2 weeks after the inoculation, the leaves of the apple seedlings were visually observed to determine the lesion area ratio, and the control value was calculated.

Aspergillus niger = test: Antimicrobial test against Aspergillus niger; assay type: cell-based; details: 96 h, Vogel medium, 25° C., 4 days in the dark, turbidity at 405 nm, read-out: growth inhibition rate
Method: Spores of Aspergillus niger were added to and dispersed in a Vogel medium, and a dihydropyrimidine compound dissolved in dimethyl sulfoxide was added and mixed thereto at 25 ppm. The resulting solution was dispensed onto a 96-well microplate and cultivated in the dark at 25° C. for 4 days.
After the cultivation, the turbidity at a wavelength of 405 nm was measured by a microplate reader and compared with that in the untreated case to determine the growth inhibition of Aspergillus niger (%) was determined.

Structure (SMILES) | pest or weed control at 125 ppm [1] | inhibition at 25 ppm (Aspergillus niger)
COc1ccc(F)cc1C(O)Cn1cc(C=NOC(C)C)c(=O)n(CC(=O)NC(C)C)c1=O (centres unmarked) [A-85] | ≥ 75% | –
COc1ccc(F)cc1C(O)Cn1cc(/C(C)=N/OC(C)C)c(=O)n(C[C@@H](NC(=O)C2CC2)C(C)C)c1=O (some centres unmarked) [C-103] | – | ≥ 50%
CCON=Cc1cn(CC(O)c2cc(F)ccc2OC)c(=O)n(CC(C)(C)C(=O)OCC)c1=O (centres unmarked) [A-15] | ≥ 75% | –
CCON=Cc1cn(CCc2ccccc2OC)c(=O)n(C(C)C(=O)NC(C)C)c1=O (centres unmarked) [A-107] | ≥ 75% | –
CC[C@@H](Cn1c(=O)c(/C(C)=N/OC(C)C)cn(CC(O)c2cc(F)ccc2OC)c1=O)NC(=O)C(C)(C)C (some centres unmarked) [C-58] | – | ≥ 50%
COc1ccccc1C(O)Cn1cc(/C(C)=N/OC(C)C)c(=O)n(C[C@H](CC(C)C)NC(=O)C(C)C)c1=O (some centres unmarked) [C-43] | – | ≥ 50%
COc1ccc(F)cc1C(O)Cn1cc(/C(C)=N/OC(C)C)c(=O)n(Cc2ccccn2)c1=O [D-56] | – | ≥ 50%
COc1ccc(F)cc1C(O)Cn1cc(/C(C)=N/OC(C)C)c(=O)n(C[C@H](C)NC(=O)CC(C)C)c1=O (some centres unmarked) [C-124] | – | ≥ 50%
C=CCON=Cc1cn(CC(OCCC#N)c2cc(F)ccc2OC)c(=O)n(C(C)C(=O)NC(C)C)c1=O (centres unmarked) [A-5] | ≥ 75% | –
COc1ccc(F)cc1C(O)Cn1cc(/C(C)=N/OC(C)C)c(=O)n(C[C@@H](NC(=O)C(C)C)c2ccccc2)c1=O (some centres unmarked) [C-202] | – | ≥ 50%
COc1ccc(F)cc1C(O)Cn1cc(/C(C)=N/OC(C)C)c(=O)n(C[C@H](Cc2ccccc2)NC(=O)C(C)C)c1=O (some centres unmarked) [C-168] | – | ≥ 50%
CCON=Cc1cn(CC(=O)c2cc(F)ccc2OC)c(=O)n(CCNC(=O)OC(C)(C)C)c1=O [A-20] | ≥ 75% | –
COC(=O)N[C@@H](C)Cn1c(=O)c(/C(C)=N/OC(C)C)cn(CC(O)c2cc(F)ccc2OC)c1=O (some centres unmarked) [C-186] | – | ≥ 50%
COc1ccc(F)cc1C(O)Cn1cc(/C(C)=N/OC(C)C)c(=O)n(C[C@H](C)NC(=O)C(C)(C)C)c1=O (some centres unmarked) [C-126] | – | ≥ 50%
COc1ccc(F)cc1C(O)Cn1cc(/C(C)=N/OC(C)C)c(=O)n(C[C@@H](NC(=S)N(C)C)C(C)C)c1=O (some centres unmarked) [C-63] | – | ≥ 50%
COc1ccccc1CCn1cc(/C(N)=N/OC(C)C)c(=O)n(CCc2ccccc2OC)c1=O [B-8] | ≥ 75% | –
CCC(=O)N[C@@H](CC(C)C)Cn1c(=O)c(/C(C)=N/OC(C)C)cn(CC(O)c2cc(F)ccc2OC)c1=O (some centres unmarked) [C-62] | – | ≥ 50%
COc1ccc(F)cc1C(O)Cn1cc(/C(C)=N/OC(C)C)c(=O)n(C[C@@H](NC(=O)CSC)C(C)C)c1=O (some centres unmarked) [C-75] | – | ≥ 50%
CCC(=O)N[C@@H](C)Cn1c(=O)c(/C(C)=N/OC(C)C)cn(CC(O)c2cc(F)ccc2OC)c1=O (some centres unmarked) [C-137] | – | ≥ 50%
CCO/N=C(\C)c1cn(/C=C(\OC(=O)C(C)C)c2cc(F)ccc2OC)c(=O)n(C2CCCC2NC(=O)C(C)C)c1=O (centres unmarked) [A-44] | ≥ 75% | –

Structure (SMILES) | pest or weed control at 125 ppm [1] | inhibition at 25 ppm (Aspergillus niger)
COc1cccc(Cn2c(=O)c(/C(C)=N/OC(C)C)cn(CC(O)c3cc(F)ccc3OC)c2=O)c1 [D-53] | – | ≥ 50%
CCON=Cc1cn(CCc2ccccc2OC)c(=O)n(C(C)C(=O)OCC)c1=O (centres unmarked) [A-103] | ≥ 75% | –
COc1cccc(C(O)Cn2cc(/C(C)=N/OC(C)C)c(=O)n(C[C@H](C)NC(=O)C(C)C)c2=O)c1 (some centres unmarked) [A-40] | ≥ 75% | –
COc1ccc(F)cc1C(Cn1cc(C=NOCC2CC2)c(=O)n(C(C)C(=O)NC(C)C)c1=O)OCCC#N (centres unmarked) [A-9] | ≥ 75% | –
CCON=Cc1cn(CC(OCCC#N)c2cc(F)ccc2OC)c(=O)n(CCNC(=O)c2ccc(F)cc2)c1=O (centres unmarked) [A-16] | ≥ 75% | –
COc1ccc(F)cc1C(O)Cn1cc(/C=N\OC(C)C)c(=O)n(CC(=O)N2CCCCC2)c1=O (centres unmarked) [A-83] | ≥ 75% | –
CCON=Cc1cn(CCc2ccccc2OC)c(=O)n(C(C)C(=O)N2CCCC2)c1=O (centres unmarked) [A-104] | ≥ 75% | –
COc1ccc(F)cc1C(Cn1cc(C=NOCC(F)(F)F)c(=O)n(C(C)C(=O)NC(C)C)c1=O)OCCC#N (centres unmarked) [A-22] | ≥ 75% | –
COc1ccc(F)cc1C(O)Cn1cc(/C(C)=N/OC(C)C)c(=O)n(C[C@H](CC(C)C)NC(=O)N(C)C)c1=O (some centres unmarked) [C-60] | – | ≥ 50%
CC/C(=N\OC(C)C)c1cn(CC(O)c2cc(F)ccc2OC)c(=O)n(C[C@H](C)NC(=O)C(C)C)c1=O (some centres unmarked) [C-172] | – | ≥ 50%
COc1ccc(F)cc1C(O)Cn1cc(/C(C)=N/OC(C)C)c(=O)n(C[C@@H](NC(=O)C(Cl)Cl)C(C)C)c1=O (some centres unmarked) [C-81] | – | ≥ 50%
COc1ccccc1C(O)Cn1cc(/C(C)=N/OC(C)C)c(=O)n(C[C@@H](NC(=O)C2CCC2)C(C)C)c1=O (some centres unmarked) [C-79] | – | ≥ 50%
COc1ccc(F)cc1C(O)Cn1cc(/C(C)=N/OC(C)C)c(=O)n(C[C@H](C)NC(=O)C2CC2)c1=O (some centres unmarked) [C-141] | – | ≥ 50%
C#CCON=Cc1cn(CC(OCCC#N)c2cc(F)ccc2OC)c(=O)n(C(C)C(=O)NC(C)C)c1=O (centres unmarked) [A-21] | ≥ 75% | –
CON=Cc1cn(CC(OCCC#N)c2cc(F)ccc2OC)c(=O)n(C(C)C(=O)NC(C)C)c1=O (centres unmarked) [A-6] | ≥ 75% | –
COc1ccc(F)cc1C(O)Cn1cc(/C(C)=N/OC(C)C)c(=O)n(C[C@@H]2CCCN2C(=O)N(C)C)c1=O (stereo partly drawn) [D-22] | – | ≥ 50%
COc1ccc(F)cc1C(O)Cn1cc(C=NOC(C)C)c(=O)n(C(C)C(=O)N2CCSCC2)c1=O (centres unmarked) [A-72] | ≥ 75% | –
CCON=Cc1cn(CC(O)c2cc(F)ccc2OC)c(=O)n(CC(C)(C)C(=O)NC(C)C)c1=O (centres unmarked) [A-8] | ≥ 75% | –
COc1ccc(F)cc1C(O)Cn1cc(/C(C)=N/OC(C)C)c(=O)n(C[C@@H](NC(=O)N(C)C)C(C)C)c1=O (some centres unmarked) [C-69] | – | ≥ 50%
COc1ccc(F)cc1C(Cn1cc(C=NOC(C)C)c(=O)n(C(C)C(=O)N2CCSCC2)c1=O)OCCC#N (centres unmarked) [A-67] | ≥ 75% | –

Structure (SMILES) | pest or weed control at 125 ppm [1] | inhibition at 25 ppm (Aspergillus niger)
CCO/N=C(\N)c1cn(CCc2ccccc2OC)c(=O)n(CCc2ccccc2OC)c1=O [B-9] | ≥ 75% | –
CCON=Cc1cn(CC(O)c2cc(F)ccc2OC)c(=O)n(CCNC(=O)OC(C)(C)C)c1=O (centres unmarked) [A-19] | ≥ 75% | –
CCO/N=C(\C)c1cn(CC(=O)c2cc(F)ccc2OC)c(=O)n(CCNC(=O)C(C)C)c1=O [A-36, N-(2-(5-(1-(ethoxyimino)ethyl)-3-(2-(5-fluoro-2-methoxyphenyl)-2-oxoethyl)-2,6-dioxo-3,6-dihydropyrimidin-1(2H)-yl)ethyl)isobutyramide] | ≥ 75% | –
CCON=Cc1cn(CC(OCCC#N)c2cc(F)ccc2OC)c(=O)n(CC(C)(C)C(=O)OCC)c1=O (centres unmarked) [A-13] | ≥ 75% | –
COc1ccc(F)cc1C(Cn1cc(C=NOC(C)(C)C)c(=O)n(C(C)C(=O)NC(C)C)c1=O)OCCC#N (centres unmarked) [A-98] | ≥ 75% | –
COc1ccc(F)cc1C(O)Cn1cc(/C(C)=N/OC(C)C)c(=O)n(C[C@@H]2CCCN2C(=O)C(C)C)c1=O (stereo partly drawn) [D-20] | – | ≥ 50%
CCO/N=C(\C)c1cn(CC(=O)c2cc(F)ccc2OC)c(=O)n(CC(C)(C)C(=O)NC(C)C)c1=O [A-26] | ≥ 75% | –
COc1ccccc1Cn1c(=O)c(/C(C)=N/OC(C)C)cn(CC(O)c2cc(F)ccc2OC)c1=O [D-54] | – | ≥ 50%
C=C(C)C(=O)N1CCC[C@H]1Cn1c(=O)c(/C(C)=N/OC(C)C)cn(CC(O)c2cc(F)ccc2OC)c1=O (stereo partly drawn) [D-11] | – | ≥ 50%
COc1ccccc1C(O)Cn1cc(/C(C)=N/OC(C)C)c(=O)n(C[C@@H](NC(=O)C(C)(C)C)C(C)C)c1=O (some centres unmarked) [C-129] | – | ≥ 50%
C/C(=N\OC(C)C)c1cn(CC(O)c2ccccc2OC(F)(F)F)c(=O)n(C[C@H](C)NC(=O)C(C)C)c1=O (stereo partly drawn) [C-194, N-((2S)-1-(3-(2-hydroxy-2-(2-(trifluoromethoxy)phenyl)ethyl)-5-((E)-1-(isopropoxyimino)ethyl)-2,6-dioxo-3,6-dihydropyrimidin-1(2H)-yl)propan-2-yl)isobutyramide] | – | ≥ 50%
COc1ccc(Cn2c(=O)c(/C(C)=N/OC(C)C)cn(CC(O)c3cc(F)ccc3OC)c2=O)cc1 [D-52] | – | ≥ 50%
C=CC(=O)N[C@H](Cn1c(=O)c(/C(C)=N/OC(C)C)cn(CC(O)c2cc(F)ccc2OC)c1=O)C(C)C (some centres unmarked) [C-109] | – | ≥ 50%
C/C(=N\OC(C)C)c1cn(CC(O)c2ccccc2C)c(=O)n(C[C@H](C)NC(=O)C(C)C)c1=O (some centres unmarked) [C-213] | – | ≥ 50%
CCCn1c(=O)c(/C(C)=N/OC(C)C)cn(CC(O)c2cc(F)ccc2OC)c1=O (centres unmarked) [B-7] | ≥ 75% | –
COc1ccc(F)cc1C(O)Cn1cc(C=NOC(C)C)c(=O)n(C(C)C(=O)NC2CC2)c1=O (centres unmarked) [A-87] | ≥ 75% | –
COc1ccccc1C(O)Cn1cc(/C(C)=N/OC(C)C)c(=O)n(C[C@@H](NC(=O)N(C)C)C(C)C)c1=O (some centres unmarked) [C-77] | – | ≥ 50%
COc1ccc(F)cc1C(O)Cn1cc(/C(C)=N/OC(C)C)c(=O)n(C[C@H](C)NC(=O)OC(C)C)c1=O (some centres unmarked) [C-188] | – | ≥ 50%
CCOC(=O)C(C)(C)Cn1c(=O)c(/C(C)=N/OC(C)C)cn(CC(=O)c2cc(F)ccc2OC)c1=O [A-3] | ≥ 75% | –
